How the values were obtained:
Format in all cases: in vivo
Settings in all cases: evaluated after 13 days
[1] = system: Echinochloa crus-galli (ECHCG); assay: Pre-emergence Test, Echinochloa crus-galli (ECHCG)
[2] = system: Amaranthus retoflexus (AMARE); assay: Pre-emergence Test, Amaranthus retoflexus (AMARE)
[3] = system: Setaria faberi (SETFA); assay: Pre-emergence Test, Setaria faberi (SETFA)
[4] = system: Ipomoea hederacea (IPOHE); assay: Post-emergence Test, Ipomoea hederacea (IPOHE); set-up: key to percentage damage caused to the plant, IPOHE (five-point scale): 5=81-100%, 4=61-80%, 3=41-60%, 2=21-40%, 1=0-20% damage
Outline: (§1)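 Scores are percentage plant damage on a 1–5 scale (1=0-20%, 2=21-40%, 3=41-60%, 4=61-80%, 5=81-100%), read 13 days after treatment. Pots received a spray at 1000 g/ha unless otherwise stated, formulated in acetone/water (50:50) containing 0.5% Tween 20.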

[5] = system: Zea mays (ZEAMX); assay: Pre-emergence Test, Zea mays (ZEAMX)
[6] = system: Amaranthus palmeri (AMAPA); assay: Post-emergence Test, Amaranthus palmeri (AMAPA); set-up: key: 5=81-100%, 4=61-80%, 3=41-60%, 2=21-40%, 1=0-20% damage
Outline: as §1

[7] = system: Echinochloa crus-galli (ECHCG); assay: Post-emergence Test, Echinochloa crus-galli (ECHCG); set-up: key to percentage damage caused to the plant, ECHCG (five-point scale): 5=81-100%, 4=61-80%, 3=41-60%, 2=21-40%, 1=0-20% damage
Outline: as §1

[8] = system: Amaranthus palmeri (AMAPA); assay: Pre-emergence Test, Amaranthus palmeri (AMAPA)
[9] = system: Ipomoea hederacea (IPOHE); assay: Pre-emergence Test, Ipomoea hederacea (IPOHE)
[10] = system: Zea mays (ZEAMX); assay: Post-emergence Test, Zea mays (ZEAMX); set-up: key to percentage damage caused to the plant, ZEAMX (five-point scale): 5=81-100%, 4=61-80%, 3=41-60%, 2=21-40%, 1=0-20% damage
Outline: as §1

[11] = system: Amaranthus retoflexus (AMARE); assay: Post-emergence Test, Amaranthus retoflexus (AMARE); set-up: key to percentage damage caused to the plant, AMARE (five-point scale): 5=81-100%, 4=61-80%, 3=41-60%, 2=21-40%, 1=0-20% damage
Outline: as §1

[12] = system: Setaria faberi (SETFA); assay: Post-emergence Test, Setaria faberi (SETFA); set-up: key to percentage damage caused to the plant, SETFA (five-point scale): 5=81-100%, 4=61-80%, 3=41-60%, 2=21-40%, 1=0-20% damage
Outline: as §1

CCn1c(Cn2cc(Cl)cn2)cc(=O)c(C(=O)O)c1-c1ccc(Cl)c(Cl)c1 [Compound 14, 6-[(4-chloropyrazol-1-yl)methyl]-2-(3,4-dichlorophenyl)-1-ethyl-4-oxo-pyridine-3-carboxylic acid]
Pre-emergence Test ECHCG, percentage damage caused to the plant (five-point scale) ([1]; 250 g/Ha (*)): 4 (4=61-80%) | Pre-emergence Test ECHCG, percentage damage caused to the plant (five-point scale) ([1]; 1000 g/ha): 5 (5=81-100%) | Pre-emergence Test AMARE, percentage damage caused to the plant (five-point scale) ([2]; 250 g/Ha (*)): 0 | Pre-emergence Test AMARE, percentage damage caused to the plant (five-point scale) ([2]; 1000 g/ha): 1 (1=0-20%) | Pre-emergence Test SETFA, percentage damage caused to the plant (five-point scale) ([3]; 250 g/Ha (*)): 3 (3=41-60%) | Pre-emergence Test SETFA, percentage damage caused to the plant (five-point scale) ([3]; 1000 g/ha): 5 (5=81-100%) | percentage damage caused to the plant, IPOHE (five-point scale) ([4]; 250 g/Ha): 3 (3=41-60%) | percentage damage caused to the plant, IPOHE (five-point scale) ([4]; 1000 g/ha): 3 (3=41-60%) | Pre-emergence Test ZEAMX, percentage damage caused to the plant (five-point scale) ([5]; 250 g/Ha (*)): 0 | Pre-emergence Test ZEAMX, percentage damage caused to the plant (five-point scale) ([5]; 1000 g/ha): 0 | percentage damage caused to the plant, AMAPA (five-point scale) ([6]; 250 g/Ha): 1 (1=0-20%) | percentage damage caused to the plant, AMAPA (five-point scale) ([6]; 1000 g/ha): 3 (3=41-60%) | percentage damage caused to the plant, ECHCG (five-point scale) ([7]; 250 g/Ha): 1 (1=0-20%) | percentage damage caused to the plant, ECHCG (five-point scale) ([7]; 1000 g/ha): 4 (4=61-80%) | Pre-emergence Test AMAPA, percentage damage caused to the plant (five-point scale) ([8]; 250 g/Ha (*)): 0 | Pre-emergence Test AMAPA, percentage damage caused to the plant (five-point scale) ([8]; 1000 g/ha): 1 (1=0-20%) | Pre-emergence Test IPOHE, percentage damage caused to the plant (five-point scale) ([9]; 250 g/Ha (*)): 0 | Pre-emergence Test IPOHE, percentage damage caused to the plant (five-point scale) ([9]; 1000 g/ha): 0 | percentage damage caused to the plant, ZEAMX (five-point scale) ([10]; 250 g/Ha): 1 (1=0-20%) | percentage damage caused to the plant, ZEAMX (five-point scale) ([10]; 1000 g/ha): 1 (1=0-20%) | percentage damage caused to the plant, AMARE (five-point scale) ([11]; 250 g/Ha): 1 (1=0-20%) | percentage damage caused to the plant, AMARE (five-point scale) ([11]; 1000 g/ha): 1 (1=0-20%) | percentage damage caused to the plant, SETFA (five-point scale) ([12]; 250 g/Ha): 2 (2=21-40%) | percentage damage caused to the plant, SETFA (five-point scale) ([12]; 1000 g/ha): 4 (4=61-80%)

CCOCc1ccn(Cc2cc(=O)c(C(=O)O)c(-c3ccc(Cl)c(Cl)c3)n2CC)n1 [Compound 173, 2-(3,4-dichlorophenyl)-6-[[3-(ethoxymethyl)pyrazol-1-yl]methyl]-1-ethyl-4-oxo-pyridine-3-carboxylic acid]
Pre-emergence Test ECHCG, percentage damage caused to the plant (five-point scale) ([1]; 1000 g/ha): 4 (4=61-80%) | Pre-emergence Test AMARE, percentage damage caused to the plant (five-point scale) ([2]; 1000 g/ha): 0 | Pre-emergence Test SETFA, percentage damage caused to the plant (five-point scale) ([3]; 1000 g/ha): 4 (4=61-80%) | percentage damage caused to the plant, IPOHE (five-point scale) ([4]; 250 g/Ha): 1 (1=0-20%) | percentage damage caused to the plant, IPOHE (five-point scale) ([4]; 1000 g/ha): 2 (2=21-40%) | Pre-emergence Test ZEAMX, percentage damage caused to the plant (five-point scale) ([5]; 1000 g/ha): 0 | percentage damage caused to the plant, AMAPA (five-point scale) ([6]; 250 g/Ha): 0 | percentage damage caused to the plant, AMAPA (five-point scale) ([6]; 1000 g/ha): 1 (1=0-20%) | percentage damage caused to the plant, ECHCG (five-point scale) ([7]; 250 g/Ha): 2 (2=21-40%) | percentage damage caused to the plant, ECHCG (five-point scale) ([7]; 1000 g/ha): 4 (4=61-80%) | Pre-emergence Test AMAPA, percentage damage caused to the plant (five-point scale) ([8]; 1000 g/ha): 0 | Pre-emergence Test IPOHE, percentage damage caused to the plant (five-point scale) ([9]; 1000 g/ha): 3 (3=41-60%) | percentage damage caused to the plant, ZEAMX (five-point scale) ([10]; 250 g/Ha): 0 | percentage damage caused to the plant, ZEAMX (five-point scale) ([10]; 1000 g/ha): 1 (1=0-20%) | percentage damage caused to the plant, AMARE (five-point scale) ([11]; 250 g/Ha): 0 | percentage damage caused to the plant, AMARE (five-point scale) ([11]; 1000 g/ha): 1 (1=0-20%) | percentage damage caused to the plant, SETFA (five-point scale) ([12]; 250 g/Ha): 1 (1=0-20%) | percentage damage caused to the plant, SETFA (five-point scale) ([12]; 1000 g/ha): 4 (4=61-80%)
